“And” between values parts separate entries of the source, which are not always exact repeats. Equal entries are not always repeated.
Columns and labels:
[1] = test system: human colorectal HCT-116 cancer cell line; experiment: In vitro cytotoxic screening (MTT assay), HCT-116; assay type: cell-based; details: average ± standard deviation
Method: (§1) Using human breast MCF-7, colorectal HCT-116, and prostate PC-3 cancer cell lines, preliminary antiproliferative effectiveness of cyclopenta[4,5]thieno[2,3-d][1,2,4]triazolo[1,5-a]pyrimidin-9(6H)-ones 4–16 was established in vitro through MTT assay at different concentrations (100, 50, 25 and 12.5 μM) (Figure 2).
(§2) The cell lines were obtained from Karolinska Center, Department of Oncology and Pathology, Karolinska Institute and Hospital, Stockholm, Sweden. as follows: human breast MCF-7, colorectal HCT-116 and prostate PC-3 cancer cell lines and human skin normal BJ-1 cell line. Exponentially, cells were cultured at a concentration of 10^4 cells/well for 24 h, afterwards fresh medium containing different concentrations of the tested samples was added. Serial two-fold dilution of the tested samples were added using a multichannel pipette. Moreover, all cells were cultivated at 37 °C, 5% CO2 and 95% humidity. Also, incubation of control cells occurred at 37 °C. However, after incubation for 24 h different concentrations of samples (100, 50, 25 and 12.5 µM) were added and the incubation was continued for 48 h, then crystal violet solution 1% was added to each well for 0.5 h to examine the presence of viable cells. After rinsing the wells using water until stain free, 30% glacial acetic acid was added to all wells with shaking the plates on a Microplate reader (TECAN, Inc.) to measure the absorbance at a wavelength of 490 nm. The cytotoxicity was estimated by IC50 in μM, which is the concentration that inhibits 50% of growth of cancer cells. […]
(§3) 1.1. In vitro cytotoxic screening
(§4) The cell lines were obtained from Karolinska Center, Department of Oncology and Pathology, Karolinska Institute and Hospital, Stockholm, Sweden. as follows: human breast MCF-7, colorectal HCT-116 and prostate PC-3 cancer cell lines and human skin normal BJ-1 cell line. Exponentially, cells were placed in 10^4 cells/ well for 24 h, and then add fresh medium which containing different concentration of the tested sample. Serial two-fold dilution of the tested sample were added using a multichannel pipette. Moreover, all cells were cultivated at 37 °C, 5% CO2 and 95% humidity. Also, incubation of control cells occurred at 37 °C. However, after incubation for 24 h different concentrations of sample (100, 50, 25 and 12.5 µM) were added and continued the incubation for 48 h, then, add the crystal violet solution 1% to each well for 0.5 h to examine viable cells. Rinse the wells using water until no stain. After that, add 30% glacial acetic acid to all wells with shaking plates on Microplate reader (TECAN, Inc.) to measure the absorbance, using a test wavelength of 490 nm. Besides, compare the treated samples with the control cell. The cytotoxicity was estimated by IC50 in (μ M), the concentration that inhibits 50% of growth of cancer cell. […]
(§5) The molecular docking simulation of the promising in vitro screened cyclopenta[4,5]thieno[2,3-d][1,2,4]triazolo[1,5-a]pyrimidin-9(6H)-ones 10b and 10e against EGFR and PI3K was done using the Molecular Operating Environment software (MOE-Dock) version 2014.0901. The co-crystallized structures of EGFR and PI3K kinases complexed with their native ligands, erlotinib and quinolone LXX, were downloaded from the protein data bank (PDB codes: 1M17 and 3L54, respectively). All minimizations were performed using MOE until an RMSD gradient of 0.05 kcal∙mol−1Å−1 with MMFF94x force field and the partial charges were automatically calculated. Preparation of the enzyme structures was done for molecular docking using Protonate 3D protocol with the default options in MOE. London dG scoring function and Triangle Matcher placement method were used in the docking protocol. Initially, the original ligands were re-docked into the active binding site of EGFR and PI3K kinases to assess the root-mean-square deviation values. Then, the docking studies of the newly targeted […]

[2] = test system: human breast MCF-7 cancer cell line; experiment: In vitro cytotoxic screening (MTT assay), MCF-7; assay type: cell-based; details: average ± standard deviation
Method: as §1, §2, §3, §4, §5

[3] = test system: human prostate PC-3 cancer cell line; experiment: In vitro cytotoxic screening (MTT assay), PC-3; assay type: cell-based; details: average ± standard deviation
Method: as §1, §2, §3, §4, §5

Structure (SMILES)	Percentage cytotoxicity on HCT-116 ([1]; 12.5 µM)	Percentage cytotoxicity on HCT-116 ([1]; 25 µM)	Percentage cytotoxicity on HCT-116 ([1]; 50 µM)	Percentage cytotoxicity on HCT-116 ([1]; 100 µM)	Percentage cytotoxicity on MCF-7 ([2]; 12.5 µM)	Percentage cytotoxicity on MCF-7 ([2]; 25 µM)	Percentage cytotoxicity on MCF-7 ([2]; 50 µM)	Percentage cytotoxicity on MCF-7 ([2]; 100 µM)	melting point	Percentage cytotoxicity on PC-3 ([3]; 12.5 µM)	Percentage cytotoxicity on PC-3 ([3]; 25 µM)	Percentage cytotoxicity on PC-3 ([3]; 50 µM)	Percentage cytotoxicity on PC-3 ([3]; 100 µM)
O=c1c2c3c(sc2nc2nc([C@@H](O)[C@H](O)[C@H](O)CO)[nH]n12)CCC3 [Compound 11d, 2-((1R,2S,3R)-1,2,3,4-tetrahydroxybutyl)-1,6,7,8-tetrahydro-9H-cyclopenta[4,5]thieno[2,3-d][1,2,4]triazolo[1,5-a]pyrimidin-9-one]	0.0±0.005%	0.0±0.005%	0.0±0.005%	10.0±3.4%	0.0±0.005%	29.2±2.9%	47.9±2.2%	50.5±0.2%	> 300 °C	5.4±6.8%	6.8±0.3%	9.7±0.5%	25.3±3.8%
CC(=O)OC[C@H]1O[C@@H](n2cnn3c(=O)c4c5c(sc4nc23)CCC5)[C@H](OC(C)=O)[C@@H](OC(C)=O)[C@@H]1OC(C)=O [Compound 14, 3-(2,3,4,6-Tetra-O-acetyl-β-d-glocopyranosyl)-7,8-dihydro-3H-cyclopenta-[4,5]thieno-[2,3-d][1,2,4]triazolo[1,5-a]pyrimidin-9(6H)-one]	0.0±0.005%	0.0±0.005%	0.0±0.005%	15.7±2.9%	0.0±0.005%	0.0±0.005%	0.0±0.005%	29.2±0.8%	> 300 °C	0.0±0.005%	0.0±0.005%	0.0±0.005%	9.5±1.9%
O=c1c2c3c(sc2nc2nc([C@H](O)[C@@H](O)[C@H](O)[C@H](O)CO)[nH]n12)CCC3 [Compound 11a, 2-((1S,2R,3R,4R)-1,2,3,4,5-pentahydroxypentyl)-1,6,7,8-tetrahydro-9H-cyclopenta[4,5]thieno[2,3-d][1,2,4]triazolo[1,5-a]pyrimidin-9-one]	12.94±4.6%	12.94±4.6%	25.8±1.6%	32.4±3.9%	0.0±0.005%	16.2±1.6%	41.3±4.3% and 36.6±6.3%	36.6±6.3% and 41.3±4.3%	> 300 °C	9.9±2.5%	21.9±1.0%	7.3±0.3%	33.9±3.5%
COc1ccc(-c2nn3c(=O)c4c5c(sc4nc3n2[C@@H]2O[C@H](COC(C)=O)[C@@H](OC(C)=O)[C@H](OC(C)=O)[C@H]2OC(C)=O)CCC5)cc1 [Compound 16, 2-(4-Methoxyphenyl)-3-(2,3,4,6-tetra-O-acetyl-β-D-glocopyranosyl)-7,8-dihydro-3H-cyclopenta[4,5]thieno[2,3-d][1,2,4]triazolo[1,5-a]pyrimidin-9(6H)-one]	0.0±0.005%	0.0±0.005%	0.0±0.005%	1.0±0.5%	0.0±0.005%	0.0±0.005%	0.0±0.005%	29.5±1.6%	> 300 °C	0.0±0.005%	0.0±0.005%	0.0±0.005%	14.5±1.6%
O=c1c2c3c(sc2nc2nc([C@@H](O)[C@@H](O)[C@H](O)[C@H](O)CO)[nH]n12)CCC3 [Compound 11c, 2-((1R,2R,3R,4R)-1,2,3,4,5-pentahydroxypentyl)-1,6,7,8-tetrahydro-9H-cyclopenta[4,5]thieno[2,3-d][1,2,4]triazolo[1,5-a]pyrimidin-9-one]	12.7±1.7%	19.5±3.7%	22.3±0.9%	20.6±5.4%	0.0±0.005%	0.0±0.005%	16.5±2.1%	38.7±1.5%	> 300 °C	0.0±0.005%	0.0±0.005%	0.0±0.005%	8.5±4.5%
O=c1c2c3c(sc2nc2[nH]c(-c4ccc([N+](=O)[O-])cc4)nn12)CCC3 [Compound 10c, 2-(4-Nitrophenyl)-3,6,7,8-tetrahydro-9H-cyclopenta[4,5]thieno[2,3-d][1,2,4]triazolo[1,5-a]pyrimidin-9-one]	20.2±2.9%	38.2±0.9%	39.4±0.9%	40.4±2.4%	8.18±1.01%	24.04±2.59%	25.97±1.28%	33.62±2.13%	220 °C	48.3±2.0%	53.4±1.2%	54.8±1.6%	54.7±2.8%
